Common to all, as to format: in vivo
The subject of assay [1] is Chinese cabbage cultivar 5923. As to the kind of experiment: Anthocyanin coloration observed with the naked eye, Chinese cabbage cultivar 5923 seedlings. The conditions noted are these: cultured 10 days. On the procedure: (§1) 3-(3-Thienyl) acrylic acid (hereinafter referred to as S17) and 3-(2-Thienyl) acrylic acid (hereinafter referred to as 3-(2-S)) dissolved in DMSO at a concentration of 50 μM or 200 μM, respectively, were prepared, and seeds of commercial Chinese cabbage cultivars 5923 and Hwimori were sterilized and then germinated on ½ MS solid medium to prepare 4-day seedlings showing consistent growth.

Assay [2] relates to Chinese cabbage cultivar Whimori. Briefly: Anthocyanin coloration observed with the naked eye, Chinese cabbage cultivar Whimori seedlings. To be noted: 50 μM or 200 μM, cultured 10 days. Here is the method: as §1
Assay [3] concerns Chinese cabbage cultivar 5923. Briefly: Flavonoid content of leaves by HPLC after aglyconization, cultivar 5923. To be noted: for cyanidin accumulation: 200 μM alone (no sucrose); for kaempferol content: treated alone (no sucrose), 50 and 200 μM, vs control. On the procedure: as §1
(§2) The leaves of the cultivars 5923 and Whimori prepared in Example 1-1 were collected and crushed, and then extracted with 50% methanol containing 2N HCl at 95° C. for 2 hours, and flavonoid substances present in the form of glycosides in the plants were aglyconized and analyzed by HPLC. After the substances were separated through HPLC using a C18 column, peaks were detected at 350 nm and 520 nm, and flavonoids and anthocyanin non-glycosides in the extract were identified by comparing the retention time and UV spectrum of flavonol non-glycoside standards such as kaempferol, quercetin, myricetin and isorhamnetin, and anthocyanin non-glycoside standards such as pelargonidin, cyanidin and delphinidin, respectively, and the content of the identified flavonoid and anthocyanin substances was estimated based on the concentration of the standards and the area of the peak. As a control group, the cultivar 5923 or Whimori that was not treated with sulfur compounds was used.

In assay [4] the test system is Chinese cabbage cultivar Whimori. Briefly: Flavonoid content of leaves by HPLC after aglyconization, cultivar Whimori. On the procedure: as §1, §2
The next assay deals with Arabidopsis thaliana. As to the kind of experiment: Anthocyanin coloration of Arabidopsis thaliana seedlings. To be noted: cultured 5 days; for anthocyanin coloration: 50 μM or 200 μM + 4% sucrose. On the procedure: To confirm whether anthocyanin coloring effect occurs when Arabidopsis thaliana, which is a cruciferous plant such as Chinese cabbage, is treated with S17 or 3-(2-S), Arabidopsis thaliana was treated with S17 or 3-(2-S) alone, and each was treated with 4% sucrose. Specifically, Arabidopsis thaliana seeds were germinated on ½ MS solid medium supplemented with 1% sucrose, and then day 6 seedlings were placed on ½ MS medium supplemented with each of S17 (50 μM or 200 μM)+4% sucrose, or 3-(2-S) (50 μM or 200 μM)+4% sucrose and cultured for 5 days to observe anthocyanin coloration.

Assay [5] deals with rice cultivar purple rice. Briefly: Anthocyanin coloration of rice cultivar purple rice. To be noted: for anthocyanin coloration in the hypocotyls: cultured 7 days. Here is the method: To confirm whether anthocyanin coloring effects occur when not only dicotyledonous plants but also gramineous plants, which are monocotyledonous plants, are treated with S17 or 3-(2-S), seeds of the rice cultivar purple rice were sown on ½ MS medium containing each of S17 (40 μM) or 3-(2-S) (80 μM) and cultured for 7 days to observe anthocyanin coloration.

Each structure is given as a SMILES string.

As for `O=C(O)/C=C/c1cccs1` [3-(2-S), 3-(2-Thienyl) acrylic acid], the “anthocyanin coloration (naked eye)” value in assay [1] (200 μM + 4% sucrose) is on record as “Coloration was confirmed”. Moreover, in assay [2], the “anthocyanin coloration (naked eye)” value is “red coloration in Chinese cabbage in a concentration-dependent manner”. Also, in assay [3], the cyanidin accumulation result is “cyanidin was accumulated” and the kaempferol content result is on record as “increased in a concentration-dependent manner”. Moreover, in assay [4] (200 μM + 4% sucrose), the production of cyanidin result was “produced”, the production of isorhamnetin result is listed as “produced” and the production of quercetin result is reported as “produced”. The kaempferol content result in assay [4] (+ 4% sucrose, concentration dependence) was “increased in a concentration-dependent manner”. For the same compound, the “kaempferol content compared to the control group” value in assay [4] (treated alone (no sucrose)) is “remarkably increased”. In addition, the anthocyanin coloration result in the assay with Arabidopsis thaliana was “anthocyanin coloration occurred”. For the same compound, the “anthocyanin coloration in the hypocotyls” value in assay [5] (80 μM) is recorded as “anthocyanin coloration was strong”.

For the compound `O=C(O)/C=C/c1ccsc1` [S17, 3-(3-Thienyl) acrylic acid], the “anthocyanin coloration (naked eye)” value in assay [1] (50 μM + 4% sucrose) is “coloration appeared on the back of the cotyledons and true leaves”. Also, in assay [1] (200 μM + 4% sucrose), the “anthocyanin coloration (naked eye)” value was “slightly increased coloration appeared”. Besides, the “anthocyanin coloration (naked eye)” value in assay [1] (200 μM alone, no sucrose) is reported as “coloration appeared on the back of the leaves”. Besides, the “anthocyanin coloration (naked eye)” value in assay [2] is listed as “red coloration in Chinese cabbage in a concentration-dependent manner”. Also, in assay [3] (50 μM + 4% sucrose), the “kaempferol content increase compared to the control group” value is “up to 6.3 times”, the production of isorhamnetin entry is “confirmed” and the production of quercetin entry was “confirmed”. Further, the “cyanidin content compared to the control group” value in assay [3] (200 μM + 4% sucrose) is on record as “remarkably increased”. In assay [3], the cyanidin accumulation result was “cyanidin was accumulated” and the kaempferol content result is on record as “increased in a concentration-dependent manner”. The anthocyanin production ability result in assay [3] (200 μM vs 50 μM treated group, + 4% sucrose) is listed as “remarkably enhanced”. In addition, in assay [4] (50 μM and 200 μM + 4% sucrose), the “kaempferol content compared to the control group” value is “remarkably increased”, the production of cyanidin entry is on record as “produced”, the production of isorhamnetin result is recorded as “produced” and the production of quercetin entry is recorded as “produced”. In addition, the “kaempferol content compared to the control group” value in assay [4] (treated alone (no sucrose)) is given as “remarkably increased”. Besides, the anthocyanin coloration result in the assay on Arabidopsis thaliana is listed as “anthocyanin coloration occurred”. The “anthocyanin coloring compared to the 3-(2-S) treated group” value in the assay on Arabidopsis thaliana (+ 4% sucrose) is “stronger coloring”. In addition, in assay [5] (40 μM), the “anthocyanin coloration in the hypocotyls” value is “anthocyanin coloration was strong”. Also, the “coloration-inducing effect (anthocyanin production effect) relative to 3-(2-S)” value in assay [5] (S17 40 μM vs 3-(2-S) 80 μM) is given as “comparatively superior”.

Source of the values: patent US20250194597A1, “METHOD FOR INCREASING FLAVONOID CONTENT IN PLANT THROUGH TREATMENT WITH LOW-MOLECULAR-WEIGHT SULFUR COMPOUND” (REPUBLIC OF KOREA (RURAL DEVELOPMENT ADMINISTRATION), priority 2022, published 2025).
